Test results from patent publication US11168073B2, “3,3-difluoroallylamines or salts thereof and pharmaceutical compositions comprising the same” (YUHAN CORPORATION, priority 2018, dated 2021).
Structures can show the parent of a compound that is named as a salt. Where two headings read alike, the source gives them in different places.

Assays:
Format in all cases: biochemical
[1] = molecular target: T1, recombinant human VAP-1 (Homo sapiens, UniProt Q16853); test: Activity evaluation on recombinant human VAP-1 (Amplex Red/HRP-coupled hydrogen peroxide assay, benzylamine substrate); conditions: read-out: Inhibitory Activity (IC50, nM) human VAP-1
T1 construct: purchased R&D systems
T1 sequence (Q16853 1-763): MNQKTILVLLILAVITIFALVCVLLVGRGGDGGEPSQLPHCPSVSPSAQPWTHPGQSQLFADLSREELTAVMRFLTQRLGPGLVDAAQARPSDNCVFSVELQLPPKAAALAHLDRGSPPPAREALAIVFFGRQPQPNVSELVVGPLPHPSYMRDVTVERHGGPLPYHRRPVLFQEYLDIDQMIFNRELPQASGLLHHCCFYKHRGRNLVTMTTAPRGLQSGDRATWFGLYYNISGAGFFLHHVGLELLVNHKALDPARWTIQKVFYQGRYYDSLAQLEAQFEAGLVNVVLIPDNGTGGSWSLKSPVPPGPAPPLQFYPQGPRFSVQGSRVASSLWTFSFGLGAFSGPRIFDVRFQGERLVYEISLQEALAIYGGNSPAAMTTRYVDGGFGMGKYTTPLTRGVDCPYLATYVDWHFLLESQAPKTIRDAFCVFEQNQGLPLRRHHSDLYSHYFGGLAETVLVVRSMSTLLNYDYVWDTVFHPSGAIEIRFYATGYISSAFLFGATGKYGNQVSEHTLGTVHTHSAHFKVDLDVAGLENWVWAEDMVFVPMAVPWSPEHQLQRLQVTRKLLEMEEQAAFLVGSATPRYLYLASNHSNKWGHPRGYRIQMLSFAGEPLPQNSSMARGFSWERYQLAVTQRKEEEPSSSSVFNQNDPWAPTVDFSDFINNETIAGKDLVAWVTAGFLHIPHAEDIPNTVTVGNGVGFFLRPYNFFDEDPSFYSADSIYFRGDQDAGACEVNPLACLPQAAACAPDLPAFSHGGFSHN
Experimental: (§1) The compounds according to the present technology were evaluated in terms of activity on recombinant human VAP-1 (R&D systems) by measuring the level of hydrogen peroxide in horseradish peroxidase (HRP)-coupled reaction using Amplex Red Hydrogen Peroxide Assay Kit (Molecular Probes, Invitrogen, USA). The experiment was carried out at room temperature using benzylamine as a substrate. In the HRP-coupled reaction, hydrogen peroxide oxidation of 10-acetyl-3,7-dihydroxyphenoxazine (Amplex Red reagent) produces resorufin, which is a highly fluorescent compound. Briefly, the test compound was dissolved in dimethyl sulfoxide (DMSO) at a concentration of 20 mM. The dose-response assessment was made by 1:3 serial dilution in DMSO, thereby creating a 8 point curve. The concentration of the upper part was controlled according to the efficacy of the compounds, followed by the dilution with a reaction buffer solution to obtain a final DMSO concentration of less than 1%. To each well of a 96 black well plate, human VAP-1 purified in 50 mM sodium phosphate buffer solution (pH7.4) was added. The test compounds dissolved in DMSO were incubated with the human VAP-1 enzymes at 37° C. for 30 minutes. After 30-minute incubation, each well was added with a reaction mixture containing 200 uM Amplex Red reagent prepared from 50 mM sodium phosphate buffer solution (pH 7.4), 1 mM benzylamine, and 1 U/mL HRP. Fluorescence intensity was measured at several time points during 1-2 hours using a microplate reader (Flexstation3, Molecular Devices) under the wavelength condition exciting at 544 nm and reading the emission at 590 nm. The inhibitory effect of the compounds was measured as a decrease (%) in the signal rate as compared to the control group without any inhibitor (only diluted DMSO). Data was fixed to a logistic model with four variables and IC50 value was calculated using GraphPad Prism program.

[2] = molecular target: T2, recombinant human MAO-A (monoamine oxidase-A) (Homo sapiens, UniProt P21397); test: Activity evaluation on recombinant human MAO-A (Amplex Red/HRP-coupled assay, 0.5 mM tyramine substrate); conditions: read-out: Inhibitory Activity (IC50, nM) MAO-A
T2 construct: purchased Sigma-Aldrich
T2 sequence (P21397 1-527): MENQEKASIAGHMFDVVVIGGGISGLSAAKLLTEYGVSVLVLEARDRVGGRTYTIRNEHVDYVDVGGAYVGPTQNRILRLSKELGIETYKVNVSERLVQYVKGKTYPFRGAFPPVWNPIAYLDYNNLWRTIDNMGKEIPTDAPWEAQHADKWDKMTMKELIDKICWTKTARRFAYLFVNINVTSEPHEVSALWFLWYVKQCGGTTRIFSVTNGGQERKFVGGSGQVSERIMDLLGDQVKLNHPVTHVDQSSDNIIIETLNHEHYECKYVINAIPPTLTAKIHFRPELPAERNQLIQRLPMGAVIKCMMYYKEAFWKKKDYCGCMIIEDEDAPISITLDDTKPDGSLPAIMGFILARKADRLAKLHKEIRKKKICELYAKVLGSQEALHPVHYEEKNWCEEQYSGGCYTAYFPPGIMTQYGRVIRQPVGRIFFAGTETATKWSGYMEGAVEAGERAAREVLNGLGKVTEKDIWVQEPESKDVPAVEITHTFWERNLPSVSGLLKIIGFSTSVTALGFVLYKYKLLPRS
Experimental: as §1
(§2) In addition, the compounds according to the present technology were evaluated in terms of activity on a recombinant human MAO-A (monoamine oxidase-A, Sigma-Aldrich) and a recombinant human MAO-B (monoamine oxidase-B, Sigma-Aldrich) by using as substrates, 0.5 mM tyramine and 1 mM benzylamine, respectively, with a method similar to the activity evaluation method for recombinant human VAP-1. The compounds according to the present technology were also evaluated in terms of activity on a recombinant human DAO (diamine oxidase, R&D systems) by using as a substrate 1 mM putrescine with a method similar to the activity evaluation method for recombinant human VAP-1.

[3] = molecular target: T3, recombinant human MAO-B (monoamine oxidase-B) (Homo sapiens, UniProt P27338); test: Activity evaluation on recombinant human MAO-B (Amplex Red/HRP-coupled assay, 1 mM benzylamine substrate); conditions: read-out: Inhibitory Activity (IC50, nM) MAO-B
T3 construct: purchased Sigma-Aldrich
T3 sequence (P27338 1-520): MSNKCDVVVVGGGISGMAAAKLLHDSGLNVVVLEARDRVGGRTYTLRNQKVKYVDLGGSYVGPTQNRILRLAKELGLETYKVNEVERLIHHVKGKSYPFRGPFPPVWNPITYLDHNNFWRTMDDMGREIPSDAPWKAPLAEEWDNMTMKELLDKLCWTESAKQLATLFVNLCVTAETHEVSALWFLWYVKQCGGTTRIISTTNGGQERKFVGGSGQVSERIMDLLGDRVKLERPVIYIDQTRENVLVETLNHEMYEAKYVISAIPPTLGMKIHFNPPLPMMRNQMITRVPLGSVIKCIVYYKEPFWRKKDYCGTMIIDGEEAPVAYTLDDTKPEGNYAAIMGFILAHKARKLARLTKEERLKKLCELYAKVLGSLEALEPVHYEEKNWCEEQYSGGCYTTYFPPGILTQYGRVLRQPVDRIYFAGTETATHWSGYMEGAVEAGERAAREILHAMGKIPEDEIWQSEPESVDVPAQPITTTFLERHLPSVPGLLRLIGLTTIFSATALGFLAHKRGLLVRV
Experimental: as §1, §2

[4] = molecular target: T4, recombinant human DAO (diamine oxidase) (Homo sapiens, UniProt P19801); test: Activity evaluation on recombinant human DAO (Amplex Red/HRP-coupled assay, 1 mM putrescine substrate); conditions: read-out: Inhibitory Activity (IC50, nM) DAO
T4 construct: purchased R&D systems
T4 sequence (P19801 20-751): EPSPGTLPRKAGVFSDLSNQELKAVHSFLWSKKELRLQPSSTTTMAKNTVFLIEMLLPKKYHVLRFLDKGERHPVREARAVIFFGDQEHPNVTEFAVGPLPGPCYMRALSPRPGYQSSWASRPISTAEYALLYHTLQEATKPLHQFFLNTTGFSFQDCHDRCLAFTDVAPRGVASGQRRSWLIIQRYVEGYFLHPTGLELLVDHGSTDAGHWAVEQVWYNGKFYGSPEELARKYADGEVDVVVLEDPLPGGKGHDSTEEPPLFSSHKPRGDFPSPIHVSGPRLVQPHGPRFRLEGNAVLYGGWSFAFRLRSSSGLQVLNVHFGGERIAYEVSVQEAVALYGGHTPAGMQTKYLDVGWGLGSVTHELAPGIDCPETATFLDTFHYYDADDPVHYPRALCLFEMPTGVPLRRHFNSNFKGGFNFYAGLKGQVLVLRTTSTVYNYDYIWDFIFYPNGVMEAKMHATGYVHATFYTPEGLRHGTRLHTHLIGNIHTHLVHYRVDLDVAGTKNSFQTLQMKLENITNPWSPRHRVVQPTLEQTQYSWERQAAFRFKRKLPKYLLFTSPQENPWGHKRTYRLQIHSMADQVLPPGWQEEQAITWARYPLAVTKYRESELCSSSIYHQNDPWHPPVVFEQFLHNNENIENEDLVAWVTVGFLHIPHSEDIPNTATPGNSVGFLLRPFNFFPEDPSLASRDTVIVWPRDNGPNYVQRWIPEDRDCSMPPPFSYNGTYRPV
Experimental: as §1, §2

[5] = recombinant human VAP-1, 30 min preincubation at 37° C., 1 mM benzylamine
[6] = recombinant human VAP-1, benzylamine substrate

SMILES	IC50 [1, 5] [nM]	IC50 ([2]; 0.5 mM tyramine) [nM]	IC50 ([3]; 1 mM benzylamine) [nM]	IC50 ([4]; 1 mM putrescine) [nM]	IC50 [1, 6] [nM]	IC50 ([2]; 0.5 mM tyramine substrate) [nM]	IC50 ([3]; 1 mM benzylamine substrate) [nM]	IC50 ([4]; 1 mM putrescine substrate) [nM]
Cc1cc(-c2cc(C)c3c(c2)CCC(=O)N3)cnc1-n1cnn(CC(CN)=C(F)F)c1=O [Example 73, 6-[6-[1-[2-(aminomethyl)-3,3-difluoro-allyl]-5-oxo-1,2,4-triazol-4-yl]-5-methyl-3-pyridyl]-8-methyl-3,4-dihydro-1H-quinolin-2-one Trifluoroacetate]	0.3	> 100000	7200	6100				
CC(C)n1cc(-c2csc(Cn3cnn(CC(CN)=C(F)F)c3=O)c2)ccc1=O [Example 187, 5-[5-[[1-[2-(aminomethyl)-3,3-difluoro-allyl]-5-oxo-1,2,4-triazol-4-yl]methyl]-3-thienyl]-1-isopropyl-pyridin-2-one Trifluoroacetate]					1.1	> 100000	> 100000	8900
CS(=O)(=O)c1ccc(-c2ccc(-n3cnn(CC(CN)=C(F)F)c3=O)c(F)c2)cc1 [Example 31, 2-[2-(aminomethyl)-3,3-difluoro-allyl]-4-[2-fluoro-4-(4-methylsulfonylphenyl)phenyl]-1,2,4-triazol-3-one Trifluoroacetate]	0.2	> 100000	870	59				
Cc1cc(-c2ccc(Cn3cnn(CC(CN)=C(F)F)c3=O)cc2)cc2c1NC(=O)CC2 [Example 269, 6-[4-[[1-[2-(aminomethyl)-3,3-difluoro-allyl]-5-oxo-1,2,4-triazol-4-yl]methyl]phenyl]-8-methyl-3,4-dihydro-1H-quinolin-2-one Trifluoroacetate]					1	> 100000	> 100000	71000
Cc1c(-c2ccc(Cn3cnn(CC(CN)=C(F)F)c3=O)s2)ccc2c1NCCO2 [Example 139, 2-[2-(aminomethyl)-3,3-difluoro-allyl]-4-[[5-(5-methyl-3,4-dihydro-2H-1,4-benzoxazin-6-yl)-2-thienyl]methyl]-1,2,4-triazol-3-one Trifluoroacetate]	1	21000	21000	73000				
CN(C)c1ccc(-c2ccc(Cn3cnn(CC(CN)=C(F)F)c3=O)cc2)cn1 [Example 267, 2-[2-(aminomethyl)-3,3-difluoro-allyl]-4-[[4-[6-(dimethylamino)-3-pyridyl]phenyl]methyl]-1,2,4-triazol-3-one Trifluoroacetate]					1.1	> 100000	> 100000	> 100000
CCn1cc(-c2cc(F)c(Cn3cnn(CC(CN)=C(F)F)c3=O)s2)ccc1=O [Example 299, 5-[5-[[1-[2-(aminomethyl)-3,3-difluoro-allyl]-5-oxo-1,2,4-triazol-4-yl]methyl]-4-fluoro-2-thienyl]-1-ethyl-pyridin-2-one Trifluoroacetate]					1.4	> 100000	> 100000	9680
CS(=O)(=O)c1cccc(-c2ccc(Cn3cnn(CC(CN)=C(F)F)c3=O)s2)c1 [Example 102, 2-[2-(aminomethyl)-3,3-difluoro-allyl]-4-[[5-(3-methylsulfonylphenyl)-2-thienyl]methyl]-1,2,4-triazol-3-one Trifluoroacetate]	0.4	> 100000	5400	> 10000				
NCC(Cn1ncn(-c2cc(-c3ccc4c(c3)OCO4)ccn2)c1=O)=C(F)F [Example 58, 2-[2-(aminomethyl)-3,3-difluoro-allyl]-4-[4-(1,3-benzodioxol-5-yl)-2-pyridyl]-1,2,4-triazol-3-one Trifluoroacetate]	2.2	> 100000	> 100000	1700				
CCn1cc(-c2ccccc2Cn2cnn(CC(CN)=C(F)F)c2=O)ccc1=O [Example 285, 5-[2-[[1-[2-(aminomethyl)-3,3-difluoro-allyl]-5-oxo-1,2,4-triazol-4-yl]methyl]phenyl]-1-ethyl-pyridin-2-one Trifluoroacetate]					> 100	> 100000	> 100000	> 100000
